Data set [1] is described as follows: Solubility kinetics in FeSSIF medium. In kind it is physicochemical. Conditions: for Soluble fraction: 37 ° C.; for pH: pH given with the soluble fraction. The method, then: The solubility kinetics of the salt forms as well as the native EYP001 free acid form were determined in FaSSIF and FeSSIF media, and in a pH 4.5 acetate buffer as detailed below: The samples were prepared by adding an excess of each tested bulk (salt or native EYP001) to a given volume of test medium. […] In FaSSIF medium, the soluble concentration was assessed after 24 hours of stirring. […] At each time point, the “supernatant” was isolated and diluted in a solvent mixture allowing its injection into the chromatographic system. The concentration in solution in the test medium was determined by HPLC with external standardization.

Data set [2] in a line: Solubility kinetics in pH 4.5 acetate buffer. Conditions: 37 ° C. In kind it is physicochemical. The method, then: The solubility kinetics of the salt forms as well as the native EYP001 free acid form were determined in FaSSIF and FeSSIF media, and in a pH 4.5 acetate buffer as detailed below:
The samples were prepared by adding an excess of each tested bulk (salt or native EYP001) to a given volume of test medium. The suspension was stirred by orbital stirring over 1 hour (in both pH 4.5 acetate buffer and FeSSIF medium) or 24 hours (inFaSSIF medium) at 37° C., protected from light.
In pH 4.5 acetate buffer, the soluble concentration was assessed after 0.5 hour and 1 hour of stirring.
At each time point, the “supernatant” was isolated and diluted in a solvent mixture allowing its injection into the chromatographic system. The concentration in solution in the test medium was determined by HPLC with external standardization.

Molecules are shown by their SMILES.

For `O=C([O-])c1cc2c(Cl)c(N3CCN(S(=O)(=O)c4c(Cl)cccc4Cl)CC3)ccc2o1.[K+]` [EYP001 Potassium salt, reference compound], in data set [1] (after 0.5 h), the Soluble fraction is 0.35 mg/mL of EYP001 and the pH result is reported as “(pH = 5.0)”. Further, in data set [1] (after 1 h), the Soluble fraction is 0.38 mg/mL of EYP001 and the pH entry is “(pH = 5.0)”.
As to `O=C(O)c1cc2c(Cl)c(N3CCN(S(=O)(=O)c4c(Cl)cccc4Cl)CC3)ccc2o1.c1ccc(CCNCc2ccccc2)cc1` [EYP001 Benethamine salt (polymorph I)], the Soluble fraction in data set [2] (after 0.5 h) and in data set [2] (after 1 h) was 0.001 mg/mL of EYP001 each time.
For the compound `O=C(O)c1cc2c(Cl)c(N3CCN(S(=O)(=O)c4c(Cl)cccc4Cl)CC3)ccc2o1.c1ccc(CCNCc2ccccc2)cc1` [EYP001 Benethamine salt (polymorph II)], the Soluble fraction in data set [2] (after 0.5 h) is given as 0.0002 mg/mL of EYP001; in data set [2] (after 1 h), 0.0003 mg/mL of EYP001.

The values are drawn from US20250019370A1, “L-LYSINE SALT OF 4-CHLORO-5-[4-(2,6-DICHLOROPHENYL)SULFONYLPIPERAZIN-1-YL]-1-BENZOFURAN-2-CARBOXYLIC ACID AND VARIOUS FORMS THEREOF” (ENYO PHARMA, priority 2023, published 2025).
